Measurements taken from article PMC8968952, “Modulation of ERCC1-XPF Heterodimerization Inhibition via Structural Modification of Small Molecule Inhibitor Side-Chains” (Frontiers in Oncology, 2022).
“And” between values parts separate entries of the source, which are not always exact repeats. Identical values can stand only once.

Tests used:
[1] = Metabolic stability in cryopreserved human hepatocytes; assay type: in vitro ADME
Description: (§1) The ADME (absorption, distribution, metabolism, and excretion) profile of our lead compound 6 was determined by standard protocols carried out by WuXi AppTec (Shanghai) Co (https://www.wuxiapptec.com/). The following tests were conducted: distribution coefficient (log D at pH 7.4), aqueous solubility (Kinetic), metabolic stability in human liver microsomes and cryopreserved human hepatocytes, bidirectional permeability in Caco-2 cells, serum protein binding, and cytochrome P450 (CYP) inhibition (CYP1A2, CYP2C9, CYP2C19, CYP2D6, and CYP3A4-M).

CYP1A2 = molecular target: T1, CYP1A2 (Homo sapiens, UniProt P05177); experiment: Cytochrome P450 inhibition, CYP1A2; assay type: in vitro ADME
T1 sequence (P05177 1-516): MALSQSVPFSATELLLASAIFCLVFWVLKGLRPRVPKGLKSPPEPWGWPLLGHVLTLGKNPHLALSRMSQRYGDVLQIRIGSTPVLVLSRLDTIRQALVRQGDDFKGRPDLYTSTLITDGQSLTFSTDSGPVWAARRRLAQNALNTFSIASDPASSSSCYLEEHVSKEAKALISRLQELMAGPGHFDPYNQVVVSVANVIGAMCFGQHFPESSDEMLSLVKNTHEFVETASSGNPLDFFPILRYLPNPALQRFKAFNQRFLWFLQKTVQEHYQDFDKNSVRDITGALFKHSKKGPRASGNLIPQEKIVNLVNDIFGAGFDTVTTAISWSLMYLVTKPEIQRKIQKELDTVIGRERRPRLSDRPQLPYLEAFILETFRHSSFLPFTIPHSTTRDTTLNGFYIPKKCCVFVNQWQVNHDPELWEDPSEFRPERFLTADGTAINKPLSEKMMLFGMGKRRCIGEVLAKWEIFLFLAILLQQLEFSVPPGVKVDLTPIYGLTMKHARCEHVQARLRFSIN
Description: as §1

ERCC1-XPF = molecular target: T2, ERCC1-XPF (Homo sapiens, UniProt Q92889); experiment: Microplate fluorescence incision assay (endonuclease activity); assay type: biochemical
T2 construct: the final purity of the full-length ERCC1-XPF heterodimer was determined to be ~35%; His6; made in house; host or cells: E. coli BL21(DE3)
T2 sequence (Q92889 1-916): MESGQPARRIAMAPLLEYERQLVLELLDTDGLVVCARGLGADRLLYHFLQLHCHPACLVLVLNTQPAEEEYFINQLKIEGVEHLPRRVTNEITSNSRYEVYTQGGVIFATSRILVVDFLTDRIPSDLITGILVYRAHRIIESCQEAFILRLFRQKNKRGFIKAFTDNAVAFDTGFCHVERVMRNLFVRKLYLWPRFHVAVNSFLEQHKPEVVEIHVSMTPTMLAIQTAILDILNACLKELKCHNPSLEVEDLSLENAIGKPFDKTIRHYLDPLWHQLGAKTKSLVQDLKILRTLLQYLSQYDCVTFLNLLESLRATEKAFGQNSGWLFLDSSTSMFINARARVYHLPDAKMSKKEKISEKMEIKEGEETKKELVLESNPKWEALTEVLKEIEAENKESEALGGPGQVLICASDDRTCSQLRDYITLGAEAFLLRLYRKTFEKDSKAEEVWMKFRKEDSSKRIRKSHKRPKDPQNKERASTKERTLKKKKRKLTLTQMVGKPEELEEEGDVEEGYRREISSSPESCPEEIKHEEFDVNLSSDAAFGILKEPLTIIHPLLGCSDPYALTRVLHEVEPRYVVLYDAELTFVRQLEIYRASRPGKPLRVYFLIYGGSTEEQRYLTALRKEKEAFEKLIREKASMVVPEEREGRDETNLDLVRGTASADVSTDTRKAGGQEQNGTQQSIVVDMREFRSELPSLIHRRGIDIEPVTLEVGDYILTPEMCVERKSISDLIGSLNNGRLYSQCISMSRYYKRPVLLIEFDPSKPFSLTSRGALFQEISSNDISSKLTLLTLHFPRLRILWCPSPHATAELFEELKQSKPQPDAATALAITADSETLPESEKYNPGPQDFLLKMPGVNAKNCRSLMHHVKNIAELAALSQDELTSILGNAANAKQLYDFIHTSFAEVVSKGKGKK
From the text: Recombinant human ERCC1–XPF wild-type protein (containing polyhistidine (His-6) tags) was expressed from a bicistronic plasmid (kindly provided by Dr. Richard Wood, University of Texas MD Anderson Cancer Center, Smithville, TX) in the E. coli BL21(DE3) strain, Following previously described procedures ([70], [78]) the proteins extracted from E. coli were eluted from a ProBond Nickel-Chelating Resin (Thermo Fisher Scientific) and then a Hi-trap heparin column (GE Healthcare). Fractions containing ERCC1–XPF were dialyzed, concentrated, and stored at −80°C in 10 mM HEPES, pH 7.4, 2.5 mM β-mercaptoethanol, 0.01% CHAPS, 0.25 mM EDTA, 50% glycerol, and 25 mM NaCl. Based on polyacrylamide gel separation and Coomassie Blue staining, the final purity of the full-length ERCC1-XPF heterodimer was determined to be ~35%.
We employed a previously described protocol ([60], [70], [78]) in which the incision of the stem–loop substrate [6-FAM-5′-[…](20T)[…]-3′-dabcyl] (100 nM in 50 mM Tris-HCl, pH 8, 20 mM NaCl, 0.5 mM DDT, and 0.75 mM MnCl2) mediated by ERCC1-XPF (25 ng) in a total volume of 20 μL at 25°C was monitored by fluorescence using a FLUOstar Optima fluorimeter (BMG Labtech) with Optima software and excitation and emission wavelengths of 485 and 520 nm, respectively, for 5.5 min. The final concentration of inhibitor in the reaction was 10 μM prepared from a 200 μM stock solution in DMSO. With a molecular weight of 151 KDa for the XPF-ERCC1 heterodimer, a concentration of 25 ng of protein in 20 µl reaction buffer and a purity of 35%, the molar concentration of the enzyme was estimated to be 2.9 nM. Data were plotted using Microsoft Excel 2016.
An in vitro fluorescence-based assay was used to assess the ability of the synthesized compounds to inhibit the endonuclease activity of ERCC1-XPF. This assay has been previously described ([60], [70], [78]) and makes use of a stem-loop DNA substrate with a 5’-FAM fluorescent dye, and a 3’-dabcyl quencher. When ERCC1-XPF can cleave the DNA substrate, a 5’-FAM containing molecule is liberated from the stem-loop (and the quencher) and the fluorescence of the solution increases. The increase of the fluorescence of the solution can be observed in Figure 3A , in the absence of any inhibitor. To determine the influence of the inhibitory compounds, the protein was preincubated for 10 minutes with 10 μM of each inhibitor prior to addition of the substrate.

metabolic stability grade, hepatocyte assay (in words) [1]: low to moderate metabolic stability
CLint scaled ([1]; human, cryopreserved hepatocytes, read-out: Metabolic stability in cryopreserved human hepatocytes (clearance)): 33.5 mL/min/kg
half-life ([1]; human, cryopreserved hepatocytes, read-out: Metabolic stability in cryopreserved human hepatocytes T1/2): 1.92 h
CYP1A2 inhibition grade (in words) (CYP1A2): moderate inhibitor
IC50 (CYP1A2): 6510 nM
IC50 (ERCC1-XPF): 167 nM and 170 nM
decrease of ERCC1-XPF endonuclease activity (ERCC1-XPF; 10 μM inhibitor, at 5.5 minutes): 94%
SMILES: COc1ccc2nc3cc(Cl)ccc3c(Nc3ccc(O)c(CN4CCN(CCN(C(C)C)C(C)C)CC4)c3)c2c1 [Compound 6]
inhibition of ERCC1-XPF endonuclease activity (in words, vs control and 4) (ERCC1-XPF; 10 μM inhibitor, 10 min preincubation): increased inhibition of ERCC1-XPF endonuclease activity relative to 4
